Test systems include PC-3; KM12; MCF7; SF-539; MOLT-4; Malme-3M; A498; LOX IMVI; M14; IGROV-1; NCI-H23; DU-145; SK-MEL-2; SN12C; SNB-19; SW-620; HCT-116; ACHN; COLO 205; RXF 393.
Holding throughout (assay): NCI tumour cell line growth inhibition, 48 h

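96-well plates; 48 h exposure; 5 concentrations. Endpoints by linear interpolation between flanking doses. Not reached: highest tested concentration assigned. At the GI50, growth is halved.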 Activity calls are given as the source filed them. No stated cut-off is given here; in the data, active = GI50 up to about 1.1 µM and inactive = higher.

`CN(Cc1cc(Cl)cc(Cl)c1O)Cc1c(O)ccc2ccccc12`: the GI50 with PC-3 is 16.6 µM (inactive); in the test on KM12 it was 19.9 µM (inactive); in the test on MCF7, 17.5 µM (inactive); with SF-539 it was 20.9 µM (inactive); in the test on MOLT-4, 20.9 µM (inactive); in the test on Malme-3M it was 14.9 µM (inactive). For the same molecule, the GI50 in the test on A498 was 17.1 µM (inactive); with LOX IMVI it was 16.7 µM (inactive); in the test on M14, 20.2 µM (inactive); in the test on IGROV-1, 17.3 µM (inactive); in the test on NCI-H23 it was 18.4 µM (inactive); with DU-145, 22.3 µM (inactive). The GI50 was 19.3 µM (inactive) in the test on SK-MEL-2; 21.2 µM (inactive) in the test with SN12C; 19.8 µM (inactive) in the test with SNB-19; 31.7 µM (inactive) in the test with SW-620; 23.7 µM (inactive) in the test on HCT-116; 17.3 µM (inactive) in the test on ACHN. Besides, the GI50 with COLO 205 is 16.9 µM (inactive); with RXF 393, 13.5 µM (inactive).
On to `c1cc2c(cc1NC1=NCCO1)CCCC2`, for which the GI50 was 3.01 µM (inactive) in the test on PC-3; 2.77 µM (inactive) in the test on KM12; 0.619 µM (active) with MCF7; 2.74 µM (inactive) in the test on SF-539; 2.65 µM (inactive) in the test with MOLT-4; 6.7 µM (inactive) in the test on Malme-3M. The GI50 in the test with A498 is 3.76 µM (inactive); in the test with LOX IMVI it was 3.13 µM (inactive); with M14 it was 2.88 µM (inactive); in the test on IGROV-1, 4.37 µM (inactive); in the test with NCI-H23 it was 4.09 µM (inactive); in the test on DU-145, 5.08 µM (inactive). Besides, the GI50 was 2.97 µM (inactive) with SK-MEL-2; 3.56 µM (inactive) in the test with SN12C; 21.7 µM (inactive) with SNB-19; 9.73 µM (inactive) in the test with SW-620; 2.76 µM (inactive) in the test on HCT-116; 7.59 µM (inactive) in the test on ACHN. The results for the GI50 with COLO 205 and in the test on RXF 393 were 1.84 µM (inactive) and 2.67 µM (inactive), respectively.
For the molecule `C/C=C(\C)C(O)C(C)C(O)C/C=C(C)/C=C(\C)C/C(C)=C/C/C=C(\C)C(O)C(C)c1ccc(CCC)c(=O)o1` (stereo not given), the GI50 with PC-3 is 3.5 µM (inactive); in the test with KM12, 7.19 µM (inactive); in the test with MCF7, 4.25 µM (inactive); in the test with SF-539, 14.1 µM (inactive); in the test on MOLT-4, 20 µM (inactive); in the test with Malme-3M it was 9.25 µM (inactive). Moreover, the GI50 in the test with A498 was 14.7 µM (inactive); with LOX IMVI it was 6.68 µM (inactive); in the test on M14 it was 14.9 µM (inactive); in the test with IGROV-1 it was 14.6 µM (inactive); with NCI-H23, < 0.01 µM (active); in the test with DU-145, < 0.01 µM (active). The GI50 was 23.8 µM (inactive) in the test with SK-MEL-2; 16.6 µM (inactive) in the test on SN12C; 16.1 µM (inactive) with SNB-19; 12.3 µM (inactive) in the test with SW-620; 0.544 µM (active) in the test with HCT-116; < 0.01 µM (active) with ACHN. Moreover, the GI50 with COLO 205 is 3.78 µM (inactive); in the test on RXF 393, 26.7 µM (inactive).
In the case of `COC(=O)CC1C(C)(C)C(=O)C2CC3=C4CC(=O)OC(c5ccoc5)C4(C)CCC3C1(C)C2=O` (stereo not given), the GI50 with PC-3, with KM12, with MCF7, with SF-539, in the test with MOLT-4 and with Malme-3M was > 100 µM (inactive) in each case. Moreover, the GI50 in the test on A498, in the test on LOX IMVI, with M14, with IGROV-1, in the test with NCI-H23 and in the test with DU-145 was > 100 µM (inactive) throughout. The GI50 in the test with SK-MEL-2, in the test on SN12C, with SNB-19, with SW-620, in the test with HCT-116 and in the test with ACHN was > 100 µM (inactive) throughout. For the same molecule, the GI50 in the test with COLO 205 and with RXF 393 was > 100 µM (inactive) throughout.
For the molecule `COc1ccc2c3c1O[C@H](c1ccc(O)cc1)[C@H]3[N+](C)(C)CC2`, the GI50 in the test with PC-3 was 75.5 µM (inactive); with KM12, > 100 µM (inactive); with MCF7 it was > 100 µM (inactive); in the test on SF-539 it was > 100 µM (inactive); in the test with MOLT-4 it was > 100 µM (inactive); in the test with Malme-3M, > 100 µM (inactive). Moreover, the GI50 in the test on A498 is > 100 µM (inactive); in the test with LOX IMVI, > 100 µM (inactive); in the test with M14, > 100 µM (inactive); in the test on IGROV-1 it was > 100 µM (inactive); in the test with NCI-H23, 46.6 µM (inactive); with DU-145 it was > 100 µM (inactive). For the same molecule, the GI50 was > 100 µM (inactive) with SK-MEL-2; > 100 µM (inactive) with SN12C; 49.2 µM (inactive) in the test on SNB-19; > 100 µM (inactive) in the test on SW-620; > 100 µM (inactive) with HCT-116; > 100 µM (inactive) with ACHN. Further, the GI50 is 68.4 µM (inactive) with COLO 205 and > 100 µM (inactive) with RXF 393.
On to `CCOC(=O)Cc1c(C(=O)OCC)[n+]([O-])c2cc(Cl)c(Cl)cc2[n+]1[O-]`, for which the GI50 with PC-3 is 2.1 µM (inactive); with KM12, 1.32 µM (inactive); in the test with MCF7, 1.57 µM (inactive); in the test with SF-539, 2.08 µM (inactive); in the test with MOLT-4 it was 1.56 µM (inactive); in the test with Malme-3M, 1.4 µM (inactive). The GI50 in the test on A498 is 2.31 µM (inactive); with LOX IMVI it was 2 µM (inactive); with M14, 2.29 µM (inactive); with IGROV-1, 1.01 µM (active); in the test on NCI-H23, 2.18 µM (inactive); with DU-145, 1.69 µM (inactive). Also, the GI50 was 2.59 µM (inactive) in the test on SK-MEL-2; 2.49 µM (inactive) in the test with SN12C; 3.5 µM (inactive) in the test on SNB-19; 1.52 µM (inactive) in the test with SW-620; 1.77 µM (inactive) in the test on HCT-116; 1.76 µM (inactive) with ACHN. Moreover, the GI50 with COLO 205 was 1.73 µM (inactive); with RXF 393 it was 2.12 µM (inactive).
In the case of `C/C=C/C=C/C1=NN(c2cccc(S(=O)(=O)O)c2)C2(C1)C(Cl)C(=O)N2c1nc2ccccc2s1` (stereo not given), the GI50 with PC-3 was 13.5 µM (inactive); in the test on KM12 it was 13.6 µM (inactive); with MCF7, 13.4 µM (inactive); in the test with SF-539, 12.6 µM (inactive); with MOLT-4 it was 28.6 µM (inactive); in the test on Malme-3M it was 17.1 µM (inactive). Moreover, the GI50 with A498 is 16.3 µM (inactive); in the test with LOX IMVI, 7.85 µM (inactive); in the test with M14 it was 15.1 µM (inactive); in the test on IGROV-1, 11 µM (inactive); in the test with NCI-H23, 15.1 µM (inactive); in the test with DU-145 it was 13.4 µM (inactive). Also, the GI50 in the test on SK-MEL-2 was 15.6 µM (inactive); in the test with SN12C, 14.9 µM (inactive); in the test on SNB-19 it was 15.2 µM (inactive); in the test with SW-620, 20.2 µM (inactive); with HCT-116, 14.4 µM (inactive); in the test with ACHN, 15.4 µM (inactive). Moreover, the GI50 with COLO 205 was 18.3 µM (inactive); with RXF 393 it was 6.3 µM (inactive).
For `CCCCn1c(C)c2c(c1C)C(=O)N(CC(O)CN1CCc3ccccc3C1)C2=O` (stereo not given), the GI50 was 56.6 µM (inactive) with PC-3; 57 µM (inactive) in the test with KM12; 33.3 µM (inactive) in the test with MCF7; 69.8 µM (inactive) in the test on SF-539; 38.3 µM (inactive) in the test on MOLT-4; 93.3 µM (inactive) in the test with Malme-3M. Besides, the GI50 was 29.8 µM (inactive) in the test with A498; 49.7 µM (inactive) in the test on LOX IMVI; 40.1 µM (inactive) with M14; > 100 µM (inactive) with IGROV-1; 56.5 µM (inactive) with NCI-H23; > 100 µM (inactive) in the test on DU-145. Also, the GI50 was 0.292 µM (active) in the test with SK-MEL-2; 90.4 µM (inactive) in the test on SN12C; > 100 µM (inactive) in the test on SNB-19; > 100 µM (inactive) in the test with SW-620; 47.9 µM (inactive) in the test on HCT-116; 36.7 µM (inactive) with ACHN. The GI50 in the test on COLO 205 is 37.8 µM (inactive); with RXF 393, 67.6 µM (inactive).
In the case of `COC(=O)C1C2OC(C)(C)OC2CN1S(=O)(=O)c1ccc(C)cc1` (stereo not given), the GI50 in the test on PC-3, in the test on KM12, in the test with MCF7, in the test with SF-539, in the test on MOLT-4 and in the test with Malme-3M was > 100 µM (inactive) in each case. Besides, the GI50 is > 100 µM (inactive) in the test on A498; > 100 µM (inactive) in the test with LOX IMVI; > 100 µM (inactive) in the test on M14; 14.5 µM (inactive) in the test on IGROV-1; > 100 µM (inactive) in the test on NCI-H23; > 100 µM (inactive) with DU-145. For the same molecule, the GI50 with SK-MEL-2, in the test on SN12C, in the test with SNB-19, with SW-620, in the test on HCT-116 and in the test on ACHN was > 100 µM (inactive) throughout. Also, the GI50 with COLO 205 and in the test with RXF 393 was > 100 µM (inactive) each time.
With `O=C(c1cccs1)N(C(=O)N1CCCCC1)c1ccccc1`, the GI50 in the test on PC-3 is 52.1 µM (inactive); in the test on KM12 it was > 100 µM (inactive); in the test on MCF7, > 100 µM (inactive); in the test on SF-539, > 100 µM (inactive); in the test with MOLT-4, > 100 µM (inactive); with Malme-3M, 2.25 µM (inactive). Moreover, the GI50 in the test with A498, in the test with LOX IMVI, with M14, in the test with IGROV-1, in the test on NCI-H23 and in the test with DU-145 was > 100 µM (inactive) in each case. In addition, the GI50 with SK-MEL-2, in the test with SN12C, in the test on SNB-19, in the test with SW-620, with HCT-116 and in the test with ACHN was > 100 µM (inactive) throughout. Also, the GI50 in the test with COLO 205 is > 100 µM (inactive); in the test with RXF 393 it was 35 µM (inactive).

The record behind these values is ChEMBL document CHEMBL1201862, “PubChem BioAssay data set” (2004).
